From patent publication US12227520B2 (priority 2019, dated 2025)

Tests used:
[1] = Cytotoxicity assay in MT-4 cells; type: cell-based, human; details: human, uninfected MT-4 cells, 5 days incubation; read-out: CC50
Method: Each plate contained up to 8 test compounds, with negative (No Drug Control) and 5 μM AZT positive controls. MT-4 cells were pre-infected with 10 μL of either RPMI (mock-infected) or a fresh 1:250 dilution of HIV-1 IIIB concentrated virus stock. Infected and uninfected MT-4 cells were further diluted in complete RPMI media and added to each plate using a Micro Flow dispenser. After 5 days incubation in a humidified and temperature controlled incubator (37° C.), Cell Titer Glo (Promega) was added to the assay plates and chemiluminescence read using an Envision plate-reader. […] Assays were performed as above except uninfected MT-4 cells were added to each well containing test compound. In addition, 10 μM puromycin was added to the last column of each assay plate to assess a base level of cytotoxicity.

HIV-1 (IIIB) = experiment: Antiviral assay in MT-4 cells (HIV MT-4 antiviral assay); type: cell-based; details: Human immunodeficiency virus 1, IIIB, MT4, 120 h, HIV-1 (IIIB) in MT-4 cells, 5 days incubation; read-out: EC50
Method: Compounds were tested in a high-throughput 384-well assay format for their ability to inhibit the replication of HIV-1 (IIIB) in MT-4 cells. Compounds were serially diluted (1:3) in DMSO on 384-well polypropylene plates and further diluted 200-fold into complete RPMI media (10% FBS, 1% P/S) using the Biotek Micro Flow and Labcyte ECHO acoustic dispenser. Each plate contained up to 8 test compounds, with negative (No Drug Control) and 5 μM AZT positive controls. MT-4 cells were pre-infected with 10 μL of either RPMI (mock-infected) or a fresh 1:250 dilution of HIV-1 IIIB concentrated virus stock. Infected and uninfected MT-4 cells were further diluted in complete RPMI media and added to each plate using a Micro Flow dispenser. After 5 days incubation in a humidified and temperature controlled incubator (37° C.), Cell Titer Glo (Promega) was added to the assay plates and chemiluminescence read using an Envision plate-reader.

Compound | EC50 (HIV-1 (IIIB)) [nM] | CC50 at 5 days [1] [nM]
O=C(NCc1c(F)cc(F)cc1F)c1cn2c(c(O)c1=O)C(=O)N1C[C@H]2CCc2c(Cl)cccc21 [Example 45-2, (12R)-1-chloro-7-hydroxy-6,8-dioxo-N-(2,4,6-trifluorobenzyl)-6,8,13,14-tetrahydro-12H-5,12-methanobenzo[e]pyrido[1,2-a][1,4]diazonine-9-carboxamide] | 30.3 | 8890
CS(=O)(=O)N1CCN2CC(C1)n1cc(C(=O)NCc3ccc(F)cc3F)c(=O)c(O)c1C2=O (stereo not shown) [Example 32, N-(2,4-difluorobenzyl)-12-hydroxy-5-(methylsulfonyl)-1,11-dioxo-1,4,5,6,7,11-hexahydro-3H-2,7-methanopyrido[1,2-a][1,4,7]triazonine-10-carboxamide] | > 100 | > 50000
O=C(NCc1c(F)cc(F)cc1F)c1cn2c(c(O)c1=O)C(=O)N1CC2CCc2sccc21 (stereo in doubt) [Example 104-2, (11S)-6-hydroxy-5,7-dioxo-N-(2,4,6-trifluorobenzyl)-5,7,12,13-tetrahydro-11H-4,11-methanopyrido[1,2-a]thieno[3,2-e][1,4]diazonine-8-carboxamide] | 35.3 | 14000
O=C(NCc1ccc(F)cc1F)c1cn2c(c(O)c1=O)C(=O)N1C[C@@H]2CCc2ccccc21 (single isomer, unassigned) [Example 37-2] | 1.2 | 12900
CC1(F)CCCN2CC1n1cc(C(=O)NCc3ccc(F)cc3F)c(=O)c(O)c1C2=O (single isomer, unassigned) [Example 17-1a, N-(2,4-difluorobenzyl)-6-fluoro-12-hydroxy-6-methyl-1,11-dioxo-1,4,5,6,7,11-hexahydro-3H-2,7-methanopyrido[1,2-a][1,4]diazonine-10-carboxamide] | 1.5 | 12900
COc1cccc(CNC(=O)c2cn3c(c(O)c2=O)C(=O)N2CCCC[C@H]3C2)c1F [Example 54] | 36 | 1460
CN1CCN2CC(C1)n1cc(C(=O)NCc3ccc(F)cc3F)c(=O)c(O)c1C2=O (stereo not shown) [Example 33, N-(2,4-difluorobenzyl)-12-hydroxy-5-methyl-1,11-dioxo-1,4,5,6,7,11-hexahydro-3H-2,7-methanopyrido[1,2-a][1,4,7]triazonine-10-carboxamide] | 7 | > 50000
O=C(NCc1ccc(F)cc1F)c1cn2c(c(O)c1=O)C(=O)N1C(=O)C2CCc2ccccc21 (stereo not shown) [Example 27, N-(2,4-difluorobenzyl)-7-hydroxy-6,8,15-trioxo-6,8,13,14-tetrahydro-12H-5,12-methanobenzo[e]pyrido[1,2-a][1,4]diazonine-9-carboxamide] | > 100 | 10900
Cn1cc2c(n1)C[C@H]1CN(C2)C(=O)c2c(O)c(=O)c(C(=O)NCc3c(F)cc(F)cc3F)cn21 [Example 87-1, (12S)-7-hydroxy-2-methyl-6,8-dioxo-N-(2,4,6-trifluorobenzyl)-2,4,6,8,12,13-hexahydro-5,12-methanopyrazolo[4,3-f]pyrido[1,2-a][1,4]diazonine-9-carboxamide] | 6.09 | > 50000
O=C(NCc1ccc(F)cc1F)c1cn2c(c(O)c1=O)C(=O)N1CCOC[C@@H]2C1 [Example 28, (7S)—N-(2,4-difluorobenzyl)-12-hydroxy-1,11-dioxo-1,3,4,6,7,11-hexahydro-2,7-methanopyrido[1,2-d][1,4,7]oxadiazonine-10-carboxamide] | 13.5 | > 50000
O=C(NCc1ccc(F)cc1F)c1cn2c(c(O)c1=O)C(=O)N1CCCC(O)C2C1 (stereo not shown) [Example 12, N-(2,4-difluorobenzyl)-6,12-dihydroxy-1,11-dioxo-1,4,5,6,7,11-hexahydro-3H-2,7-methanopyrido[1,2-a][1,4]diazonine-10-carboxamide] | 4.1 | > 50000

Now from value to compound, other results behind:

EC50 (HIV-1 (IIIB)) [nM] | Compound | CC50 at 5 days [1] [nM]
2.78 | C[C@]1(F)CC[C@H]2CN(C1)C(=O)c1c(O)c(=O)c(C(=O)NCc3c(F)cc(F)cc3F)cn12 [Example 132-2, (4S,7S)-4-fluoro-12-hydroxy-4-methyl-1,11-dioxo-N-(2,4,6-trifluorobenzyl)-1,4,5,6,7,11-hexahydro-3H-2,7-methanopyrido[1,2-a][1,4]diazonine-10-carboxamide] | 25700
8.97 | CO[C@@H]1CCN2C[C@H](C1)n1cc(C(=O)NCc3c(F)cc(F)cc3F)c(=O)c(O)c1C2=O [Example 103-1, (5R,7S)-12-hydroxy-5-methoxy-1,11-dioxo-N-(2,4,6-trifluorobenzyl)-1,4,5,6,7,11-hexahydro-3H-2,7-methanopyrido[1,2-a][1,4]diazonine-10-carboxamide] | > 50000
3.05 | O=C(NCc1c(F)cc(F)cc1F)c1cn2c(c(O)c1=O)C(=O)N1CCSC[C@@H]2C1 [Example 155-1, (7S)-12-hydroxy-1,11-dioxo-N-(2,4,6-trifluorobenzyl)-1,3,4,6,7,11-hexahydro-2,7-methanopyrido[1,2-d][1,4,7]thiadiazonine-10-carboxamide] | 39500
12.1 | C[C@@]1(O)CCN2C[C@H](C1)n1cc(C(=O)NCc3c(F)cc(F)cc3F)c(=O)c(O)c1C2=O [Example 107-2, (5R,7S)-5,12-dihydroxy-5-methyl-1,11-dioxo-N-(2,4,6-trifluorobenzyl)-1,4,5,6,7,11-hexahydro-3H-2,7-methanopyrido[1,2-a][1,4]diazonine-10-carboxamide] | > 50000
12.8 | O=C(NCc1cccc(Cl)c1F)c1cn2c(c(O)c1=O)C(=O)N1Cc3cc(F)c(F)cc3C[C@H]2C1 [Example 143-2, (6S)—N-(3-chloro-2-fluorobenzyl)-9,10-difluoro-1-hydroxy-2,14-dioxo-2,7,12,14-tetrahydro-6H-6,13-methanobenzo[f]pyrido[1,2-a][1,4]diazonine-3-carboxamide] | > 50000
4.43 | O=C(NCc1c(F)cc(F)cc1F)c1cn2c(c(O)c1=O)C(=O)N1CCSC[C@H]2C1 [Example 155-2, (7R)-12-hydroxy-1,11-dioxo-N-(2,4,6-trifluorobenzyl)-1,3,4,6,7,11-hexahydro-2,7-methanopyrido[1,2-d][1,4,7]thiadiazonine-10-carboxamide] | > 41300
1.74 | Cn1ncc2c1C[C@H]1CN(C2)C(=O)c2c(O)c(=O)c(C(=O)NCc3c(F)cc(F)cc3F)cn21 [Example 87-2, (12S)-7-hydroxy-1-methyl-6,8-dioxo-N-(2,4,6-trifluorobenzyl)-1,4,6,8,12,13-hexahydro-5,12-methanopyrazolo[4,3-f]pyrido[1,2-a][1,4]diazonine-9-carboxamide] | > 50000
9.11 | O=C(NCc1ccc(F)c(Cl)c1F)c1cn2c(c(O)c1=O)C(=O)N1Cc3cc(F)c(F)cc3C[C@H]2C1 [Example 139-2, (6S)—N-(3-chloro-2,4-difluorobenzyl)-9,10-difluoro-1-hydroxy-2,14-dioxo-2,7,12,14-tetrahydro-6H-6,13-methanobenzo[f]pyrido[1,2-a][1,4]diazonine-3-carboxamide] | > 50000
3.93 | O=C(NCc1c(F)cc(F)cc1F)c1cn2c(c(O)c1=O)C(=O)N1Cc3ccc(Cl)cc3C[C@@H]2C1 (single isomer, unassigned) [Example 127-2] | 13700
